Data as given in PubChem BioAssay (NCI).
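A five-concentration, 48-hour dose response in 96-well plates underlies each endpoint, interpolated linearly between surrounding concentrations. The concentration for full growth arrest is given as TGI.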

Experiments:
Assay in all cases: DTP human tumour cell line panel, 48 h
SF-539 CNS = system: SF-539 CNS
MCF7 breast = system: MCF7 breast
HS 578T breast = system: HS 578T breast
OVCAR-8 ovarian = system: OVCAR-8 ovarian
PC-3 prostate = system: PC-3 prostate
BT-549 breast = system: BT-549 breast
HCC-2998 colon = system: HCC-2998 colon
T-47D breast = system: T-47D breast
SK-OV-3 ovarian = system: SK-OV-3 ovarian
NCI-H23 lung = system: NCI-H23 lung
A549 NSCLC = system: A549 NSCLC
SF-268 CNS = system: SF-268 CNS
COLO 205 colon = system: COLO 205 colon
SNB-19 CNS = system: SNB-19 CNS
HL-60(TB) leukemia = system: HL-60(TB) leukemia
SNB-75 CNS = system: SNB-75 CNS
NCI-H226 lung = system: NCI-H226 lung
CCRF-CEM leukemia = system: CCRF-CEM leukemia
HCT-15 colon = system: HCT-15 colon
HOP-62 NSCLC = system: HOP-62 NSCLC
KM12 colon = system: KM12 colon
K-562 leukemia = system: K-562 leukemia
NCI-H460 lung = system: NCI-H460 lung
UACC-257 melanoma = system: UACC-257 melanoma
UACC-62 melanoma = system: UACC-62 melanoma
IGROV1 ovarian = system: IGROV1 ovarian
MOLT-4 leukemia = system: MOLT-4 leukemia
SR leukemia = system: SR leukemia
TK-10 renal = system: TK-10 renal
SK-MEL-5 melanoma = system: SK-MEL-5 melanoma
ACHN renal = system: ACHN renal
HT29 colon = system: HT29 colon
CAKI-1 renal = system: CAKI-1 renal
DU-145 prostate = system: DU-145 prostate
LOX IMVI melanoma = system: LOX IMVI melanoma
A498 renal = system: A498 renal
RPMI-8226 leukemia = system: RPMI-8226 leukemia
M14 melanoma = system: M14 melanoma
SF-295 CNS = system: SF-295 CNS
HCT-116 colon = system: HCT-116 colon
786-0 renal = system: 786-0 renal
MDA-MB-435 = system: MDA-MB-435
SK-MEL-28 melanoma = system: SK-MEL-28 melanoma
UO-31 renal = system: UO-31 renal
SN12C renal = system: SN12C renal
SW-620 colon = system: SW-620 colon
MDA-MB-231 breast = system: MDA-MB-231 breast
NCI-H522 lung = system: NCI-H522 lung
EKVX NSCLC = system: EKVX NSCLC
MDA-N = system: MDA-N
NCI/ADR-RES ovarian = system: NCI/ADR-RES ovarian
U251 CNS = system: U251 CNS
MALME-3M melanoma = system: MALME-3M melanoma
OVCAR-4 ovarian = system: OVCAR-4 ovarian
OVCAR-5 ovarian = system: OVCAR-5 ovarian
RXF 393 renal = system: RXF 393 renal
OVCAR-3 ovarian = system: OVCAR-3 ovarian
SK-MEL-2 melanoma = system: SK-MEL-2 melanoma

Measured: TGI

COc1cc(C2SC(N)=Nc3c2c(C)nn3C(=O)Cc2ccccc2)cc(OC)c1OC (centres undefined)
not listed: NCI/ADR-RES ovarian | U251 CNS | MALME-3M melanoma | OVCAR-4 ovarian | OVCAR-5 ovarian | RXF 393 renal | OVCAR-3 ovarian | SK-MEL-2 melanoma
> 100 µM: all other assays above

CN1CCC2(CC1)C(=O)N(NC(N)=O)C(=O)C2c1ccccc1 (centres undefined)
not listed: MCF7 breast | SR leukemia | A498 renal | NCI-H522 lung
> 100 µM: all other assays above
